Patent US8598137B2, “Use of SAM68 for modulating signaling through the TNF receptor” (California Institute of Technology, priority 2010, dated 2013)

Legend:
[1] = system: Wildtype and Sam68 knockout cells; conditions: hydrogen peroxide 100 μM, 24 hours
Text: Cell death via the intrinsic pathway of apoptosis can be induced by genotoxic and oxidative stress (Roos and Kaina, 2006. Trends in molecular medicine 12, 440-450.) (Dumont et al., 1999. Oncogene 18, 747-757.).

[2] = system: NF-κB activation in Sam68 knockout fibroblast cells; experiment: IL-1β induced NF-κB activation (IκBα degradation, p65 nuclear translocation); format: cell-based, mouse; conditions: 100 ng/ml IL-1 beta
Protocol: Wild type control and Sam68 knockout fibroblast cells were treated with TNF (Recombinant human TNFα from Peprotech), and IκBα degradation and nuclear translocation of NF-κB protein were used to monitor the activation of their NF-κB pathway (IκBα antibody was from Santa Cruz Biotechnology; assessment of NF-κB nuclear translocation, cytoplasmic and nuclear extracts were prepared as described by Schreiber et al., 1989).
The Sam68 knockout fibroblast cells were treated with IL-1β (R&D Systems), another proinflammatory cytokine. […] Thus, the NF-κB activation pathway is functional in these Sam68 knockout cells, while Sam68 activity is specifically related to TNF signaling.

| Compound | death induction, cell morphology [1] | NF-κB activation (IκBα degradation and nuclear translocation of p65) [2] |
| --- | --- | --- |
| OO [hydrogen peroxide] | caused death induction in both wildtype and Sam68 knockout cells | – |
| IL-1β: proinflammatory cytokine, recombinant human IL-1 beta (R&D Systems) | – | remained intact |
